Read-outs that look alike come from different tables or passages of the source. Bounds are passed on as bounds.

One assay deals with Smoothened (Homo sapiens, UniProt Q99835). Briefly: Smo binding assay, displacement of a small molecule agonist of Smoothened, filter binding format. An excerpt:
A Smo binding assay was developed using radio-labeled smoothened agonist for compound competition.
Table 1, infra; lists the IC50 for displacement of a small molecule agonist of Smoothened determined in a filter binding format.

For assay [1], the system named is gli-luciferase activity (Hh pathway) in TMHh12 cells. The experiment in a line: "IC50 shift" gli-luciferase reporter assay in TMHh12 cells with a small molecule Smo agonist. Format: cell-based, mouse. The following applies: Mus musculus, TMHh12, TMHh12 cells. As to the method: TM3 cells (mouse) transfected with a new proprietary reporter construct (pTA-8xGli-Luc). The pTA-8xGli-Luc reporter produces approx. 4 fold more luciferase activity than classical 8xGli-LUC. A highly responsive stable clone has been selected (TMHh12) with >10-fold signal/noise ratio and <10% CV in 384 well format.
“IC50 shift” assays in TMHh12 cells. IC50 for antagonism of gli-luciferase activity was tested in the presence of increasing concentrations of a small molecule agonist which binds to Smo with 1 nM affinity and activates the Hh pathway.
Table 1 lists the IC50 of antagonists determined in the presence of different (1 nM and 25 nM) concentrations of a small agonist of Smoothened.
In general terms: In a reporter assay the amount or activity of a reporter protein is the signal.

The mark [2] stands for this setting: 1 nM small molecule Smo agonist, read-out: Gli_luc (1 nM Smo agonist) IC50.
The mark [3] stands for this setting: 25 nM small molecule Smo agonist, read-out: Gli_luc (25 nM Smo agonist) IC50.

Chain of Smoothened (Q99835 28-787): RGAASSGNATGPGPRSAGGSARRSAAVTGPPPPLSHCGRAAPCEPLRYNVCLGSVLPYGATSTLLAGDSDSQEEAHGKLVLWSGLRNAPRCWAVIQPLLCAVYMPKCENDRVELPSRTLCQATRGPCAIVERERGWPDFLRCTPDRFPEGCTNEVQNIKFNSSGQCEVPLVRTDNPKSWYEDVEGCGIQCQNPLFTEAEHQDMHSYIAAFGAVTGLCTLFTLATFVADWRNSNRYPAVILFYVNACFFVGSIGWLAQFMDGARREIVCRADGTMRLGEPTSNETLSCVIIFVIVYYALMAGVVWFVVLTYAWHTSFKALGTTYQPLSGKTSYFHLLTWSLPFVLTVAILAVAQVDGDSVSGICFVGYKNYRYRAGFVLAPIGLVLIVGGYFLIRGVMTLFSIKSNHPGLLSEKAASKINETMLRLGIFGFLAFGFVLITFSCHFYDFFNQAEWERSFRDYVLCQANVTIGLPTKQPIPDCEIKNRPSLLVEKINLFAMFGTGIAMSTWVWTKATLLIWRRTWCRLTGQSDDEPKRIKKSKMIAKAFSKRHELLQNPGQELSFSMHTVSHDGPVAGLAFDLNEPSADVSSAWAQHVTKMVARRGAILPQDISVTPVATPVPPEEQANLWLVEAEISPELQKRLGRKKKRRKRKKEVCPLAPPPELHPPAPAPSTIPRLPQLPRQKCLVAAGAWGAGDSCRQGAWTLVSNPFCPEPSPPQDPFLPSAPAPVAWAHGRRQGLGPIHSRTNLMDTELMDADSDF

On to `Cc1cccc(C(=O)Nc2ccc3c(c2)C[C@@H](NCc2cccs2)C3)c1-c1ccc(C(F)(F)F)cc1` [Example 7], for which the IC50 (in general, the concentration at which inhibition is half-maximal) was 14 nM on Smoothened, below 5 nM in assay [1] (setting [2]) and 141 nM in assay [1] (setting [3]).
As for `CCCNC1Cc2ccc(NC(=O)c3cccc(C)c3-c3ccc(C(F)(F)F)cc3)cc2C1` (stereo not shown) [Example 58], the IC50 was 4300 nM on Smoothened, 651 nM in assay [1] (setting [2]) and 10100 nM in assay [1] (setting [3]).
Consider `Cc1cccc(C(=O)Nc2ccc3c(c2)CCC(NCc2ccccc2)CC3)c1-c1ccc(Cl)cc1` (stereo not shown) [Example 69], for which the values for the 50% inhibitory concentration (IC50) (at Smoothened; in assay [1] (setting [2]); in assay [1] (setting [3])) were 619 nM, 2490 nM and 12600 nM, respectively.
`Cc1cccc(C(=O)Nc2ccc3c(c2)C[C@@H](NCc2ccco2)C3)c1-c1ccc(C(F)(F)F)cc1` [Example 11]: the 50% inhibitory concentration (IC50) at Smoothened is 14 nM; in assay [1] (setting [2]), below 5 nM; in assay [1] (setting [3]) it was 371 nM.
As to `O=C(Nc1ccc2c(c1)CCC(NS(=O)(=O)c1ccccc1F)CC2)c1ccccc1-c1ccc(C(F)(F)F)cc1` (stereo not shown) [Example 104], the concentration for half-maximal inhibition (IC50) at Smoothened came to 3520 nM; in assay [1] (setting [2]), 3560 nM.
As for `Cc1cccc(C(=O)Nc2ccc3c(c2)C[C@@H](NCc2cccnc2Cl)C3)c1-c1ccc(C(F)(F)F)cc1` [Example 30], the figures for the concentration for half-maximal inhibition (IC50) (at Smoothened; in assay [1] (setting [2]); in assay [1] (setting [3])) were 39 nM, 136 nM and 1440 nM, respectively.
As to `Cc1cccc(C(=O)Nc2ccc3c(c2)CCC(NS(=O)(=O)c2cccs2)CC3)c1-c1ccc(C(F)(F)F)cc1` (stereo not shown) [Example 105], the half-maximal inhibitory concentration (IC50) at Smoothened was 338 nM; in assay [1] (setting [2]) it was 833 nM; in assay [1] (setting [3]) it was 20400 nM.
With `Cc1cccc(C(=O)Nc2ccc3c(c2)C[C@@H](NCc2ccc4c(c2)CCO4)C3)c1-c1ccc(C(F)(F)F)cc1` [Example 31], the figures for the IC50 (at Smoothened; in assay [1] (setting [2]); in assay [1] (setting [3])) were 28 nM, 281 nM and 3040 nM, respectively.
`Cc1cccc(C(=O)Nc2ccc3c(c2)CCC(NCc2ccccn2)CC3)c1-c1ccc(C(F)(F)F)cc1` (stereo not shown) [Example 68]: the half-maximal inhibitory concentration (IC50) at Smoothened worked out at 367 nM; in assay [1] (setting [2]) it was 138 nM; in assay [1] (setting [3]), 4860 nM.
Regarding `Cc1cccc(C(=O)Nc2ccc3c(c2)CC(NCc2ccncc2)C3)c1-c1ccc(C(F)(F)F)cc1` (stereo not shown) [Example 67], the 50% inhibitory concentration (IC50) at Smoothened came to 486 nM; in assay [1] (setting [2]) it was 142 nM; in assay [1] (setting [3]), 4190 nM.
Regarding `Cc1cccc(C(=O)Nc2ccc3c(c2)CC(NCc2cccnc2)C3)c1-c1ccc(C(F)(F)F)cc1` (stereo not shown) [Example 66], the IC50 on Smoothened came out at 593 nM; in assay [1] (setting [2]), 246 nM; in assay [1] (setting [3]) it was 10000 nM.
On to `COc1ccc(OC)c(CN[C@H]2Cc3ccc(NC(=O)c4cccc(C)c4-c4ccc(C(F)(F)F)cc4)cc3C2)c1` [Example 21], for which the concentration for half-maximal inhibition (IC50) is 1 nM at Smoothened, 254 nM in assay [1] (setting [2]) and 646 nM in assay [1] (setting [3]).
`CCCCS(=O)(=O)NC1Cc2ccc(NC(=O)c3cccc(C)c3-c3ccc(C(F)(F)F)cc3)cc2C1` (stereo not shown) [Example 102]: the concentration for half-maximal inhibition (IC50) on Smoothened was 217 nM; in assay [1] (setting [2]) it was 1900 nM.
Regarding `Cc1cccc(C(=O)Nc2ccc3c(c2)C[C@@H](NCc2ccncc2)C3)c1-c1ccc(C(F)(F)F)cc1` [Example 20], the figures for the IC50 (at Smoothened; in assay [1] (setting [2]); in assay [1] (setting [3])) were 151 nM, 94 nM and 964 nM, respectively.
The corresponding values for `O=C(Nc1ccc2c(c1)CC(NCCc1ccccc1)C2)c1ccccc1-c1ccc(C(F)(F)F)cc1` (stereo not shown) [Example 53] are 7910 nM, 261 nM and 1800 nM.
As to `Cc1cccc(C(=O)Nc2ccc3c(c2)C[C@@H](NCc2scnc2C)C3)c1-c1ccc(C(F)(F)F)cc1` [Example 10], the IC50 on Smoothened was determined as 137 nM; in assay [1] (setting [2]), 290 nM; in assay [1] (setting [3]), 1340 nM.
`Cc1cccc(C(=O)Nc2ccc3c(c2)CC(NCc2ccccn2)C3)c1-c1ccc(C(F)(F)F)cc1` (stereo not shown) [Example 45]: the IC50 at Smoothened is 141 nM; in assay [1] (setting [2]), 85 nM; in assay [1] (setting [3]) it was 1140 nM.
For `Cc1ccc(CN[C@H]2Cc3ccc(NC(=O)c4cccc(C)c4-c4ccc(C(F)(F)F)cc4)cc3C2)o1` [Example 12], the IC50 on Smoothened was 4 nM; in assay [1] (setting [2]), below 5 nM; in assay [1] (setting [3]) it was 141 nM.
Take `Cc1cccc(C(=O)Nc2ccc3c(c2)C[C@@H](NCc2ccc4c(c2)OC(F)(F)O4)C3)c1-c1ccc(C(F)(F)F)cc1` [Example 25]: the IC50 at Smoothened worked out at 90 nM; in assay [1] (setting [2]), 409 nM; in assay [1] (setting [3]) it was 2500 nM.
On to `Cc1cccc(C(=O)Nc2ccc3c(c2)C[C@@H](NCc2cccn2C)C3)c1-c1ccc(C(F)(F)F)cc1` [Example 15], for which the figures for the IC50 (on Smoothened; in assay [1] (setting [2]); in assay [1] (setting [3])) were 18 nM, below 5 nM and 479 nM, respectively.
For the compound `Cc1cccc(C(=O)Nc2ccc3c(c2)CC(NCc2cc4ccccc4o2)C3)c1-c1ccc(C(F)(F)F)cc1` (stereo not shown) [Example 41], the half-maximal inhibitory concentration (IC50) worked out at 3 nM on Smoothened, 82 nM in assay [1] (setting [2]) and 616 nM in assay [1] (setting [3]).
In the same order, the values of `Cc1cccc(C(=O)Nc2ccc3c(c2)CC(NCC2CCCCC2)C3)c1-c1ccc(C(F)(F)F)cc1` (stereo not shown) [Example 50] are 621 nM, 901 nM and 11900 nM.
With `Cc1cccc(C(=O)Nc2ccc3c(c2)C[C@@H](NCc2ccc(Cl)o2)C3)c1-c1ccc(C(F)(F)F)cc1` [Example 14], the half-inhibitory concentration (IC50) at Smoothened was 1 nM; in assay [1] (setting [2]), below 5 nM; in assay [1] (setting [3]), 37 nM.
Take `Cc1cccc(C(=O)Nc2ccc3c(c2)C[C@@H](NCc2cnc4ccccc4c2)C3)c1-c1ccc(C(F)(F)F)cc1` [Example 29]: the values for the IC50 (on Smoothened; in assay [1] (setting [2]); in assay [1] (setting [3])) were 490 nM, 1670 nM and 4920 nM, respectively.
In the case of `Cc1cccc(C(=O)Nc2ccc3c(c2)CC(NCc2ccco2)C3)c1-c1ccc(C(F)(F)F)cc1` (stereo not shown) [Example 62], the values for the IC50 (on Smoothened; in assay [1] (setting [2]); in assay [1] (setting [3])) were 103 nM, 141 nM and 1630 nM, respectively.
As to `Cc1cccc(C(=O)Nc2ccc3c(c2)CC(NCc2ccc(-c4ccc(Cl)cc4)o2)C3)c1-c1ccc(C(F)(F)F)cc1` (stereo not shown) [Example 64], the IC50 stood at 135 nM at Smoothened, 48 nM in assay [1] (setting [2]) and 1310 nM in assay [1] (setting [3]).
In the same order, the values of `COc1ccc(CN[C@H]2Cc3ccc(NC(=O)c4cccc(C)c4-c4ccc(C(F)(F)F)cc4)cc3C2)cc1` [Example 23] are 93 nM, 349 nM and 3040 nM.
For the compound `Cc1ccc(-c2ccc(C(F)(F)F)cc2)c(C(=O)Nc2ccc3c(c2)CC(NCc2ccccn2)C3)c1` (stereo not shown) [Example 54], the concentration for half-maximal inhibition (IC50) amounted to 16700 nM on Smoothened, 8680 nM in assay [1] (setting [2]) and 6800 nM in assay [1] (setting [3]).
As for `O=C(Nc1ccc2c(c1)CC(NCc1ncc[nH]1)C2)c1cccc(C(F)(F)F)c1-c1ccc(C(F)(F)F)cc1` (stereo not shown) [Example 60], the IC50 on Smoothened came to 3650 nM; in assay [1] (setting [2]), 13200 nM; in assay [1] (setting [3]), 23600 nM.
In the same order, the values of `Cc1cccc(C(=O)Nc2ccc3c(c2)CC(NCc2nc4ccccc4n2C)C3)c1-c1ccc(C(F)(F)F)cc1` (stereo not shown) [Example 57] are 28 nM, 3060 nM and 17400 nM.
With `CCOC(=O)NC1CCc2ccc(NC(=O)c3cccc(C)c3-c3ccc(C(F)(F)F)cc3)cc2CC1` (stereo not shown) [Example 84], the IC50 was 881 nM on Smoothened, 700 nM in assay [1] (setting [2]) and 4480 nM in assay [1] (setting [3]).
In the same order, the values of `Cc1ccc(C(=O)Nc2ccc3c(c2)C[C@H](NCc2ccccn2)C3)c(-c2ccccc2)c1` [Example 73] are 936 nM, 99 nM and 2240 nM.
Take `CC(=O)Nc1ccc(CN[C@H]2Cc3ccc(NC(=O)c4cccc(C)c4-c4ccc(C(F)(F)F)cc4)cc3C2)cc1` [Example 22]: the IC50 is 444 nM on Smoothened, 456 nM in assay [1] (setting [2]) and 3260 nM in assay [1] (setting [3]).
The corresponding values for `Cc1cccc(C(=O)Nc2ccc3c(c2)C[C@@H](NCc2ccc(Cl)s2)C3)c1-c1ccc(C(F)(F)F)cc1` [Example 26] are 8 nM, 35 nM and 458 nM.
Turning to `Cc1cccc(C(=O)Nc2ccc3c(c2)CC(NCc2ccccc2F)C3)c1-c1ccc(C(F)(F)F)cc1` (stereo not shown) [Example 71], the half-maximal inhibitory concentration (IC50) on Smoothened is 11 nM; in assay [1] (setting [2]) it was 5 nM; in assay [1] (setting [3]) it was 235 nM.
For `O=C(Nc1ccc2c(c1)CC(NCc1ccccc1)C2)c1ccccc1-c1ccc(C(F)(F)F)cc1` (stereo not shown) [Example 56], the half-maximal inhibitory concentration (IC50) on Smoothened is 271 nM; in assay [1] (setting [2]) it was 165 nM; in assay [1] (setting [3]), 4180 nM.
As for `CS(=O)(=O)NC1Cc2ccc(NC(=O)c3cccc(F)c3-c3ccc(C(F)(F)F)cc3)cc2C1` (stereo not shown) [Example 92], the IC50 on Smoothened turned out to be 60 nM; in assay [1] (setting [2]), 1010 nM; in assay [1] (setting [3]) it was 1300 nM.
For the compound `COC(=O)N1CCC(CNC2Cc3ccc(NC(=O)c4cccc(C)c4-c4ccc(C(F)(F)F)cc4)cc3C2)CC1` (stereo not shown) [Example 51], the figures for the half-maximal inhibitory concentration (IC50) (at Smoothened; in assay [1] (setting [2]); in assay [1] (setting [3])) were 13700 nM, 7000 nM and 11200 nM, respectively.
As to `Cc1cccc(C(=O)Nc2ccc3c(c2)CC(NCc2cccn2C)C3)c1-c1ccc(C(F)(F)F)cc1` (stereo not shown) [Example 59], the IC50 came out at 21 nM on Smoothened, 112 nM in assay [1] (setting [2]) and 3490 nM in assay [1] (setting [3]).
In the same order, the values of `COC(=O)NC(CNC1Cc2ccc(NC(=O)c3cccc(C)c3-c3ccc(C(F)(F)F)cc3)cc2C1)Cc1ccccc1` (stereo not shown) [Example 49] are 118 nM, 226 nM and 2680 nM.

Values taken from patent publication US20090306149A1, “USE OF BIARYLCARBOXAMIES IN THE TREATMENT OF HEDGEHOG PATHWAY-RELATED DISORDERS” (priority 2006, published 2009).
